Measured values as given in patent publication US6737383B1, “Herbicidal oxadiazolidines” (priority 1999, dated 2004).

Legend:
blackgrass = assay: Test B pre/postemergence blackgrass; format: in vivo, Alopecurus myosuroides
Summary of the method: (§1)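 Herbicidal effect was estimated by eye on a ten-point control scale after plants spent twelve to sixteen days in a greenhouse following soil or foliar treatment. Foliar sprays targeted plants at one to four leaves; all doses were formulated in a non-phytotoxic solvent with surfactant.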

surinam grass = assay: Test B pre/postemergence surinam grass; format: in vivo, Brachiaria decumbens
Summary of the method: as §1

cocklebur = assay: Test B pre/postemergence cocklebur; format: in vivo, Xanthium strumarium
Summary of the method: as §1

corn = assay: Test B pre/postemergence corn; format: in vivo, Zea mays
Summary of the method: as §1

crabgrass = assay: Test B pre/postemergence crabgrass; format: in vivo, Digitaria sanguinalis
Summary of the method: as §1

soybean = assay: Test B pre/postemergence soybean; format: in vivo, Glycine max
Summary of the method: as §1

sugar beet = assay: Test B pre/postemergence sugar beet; format: in vivo, Beta vulgaris
Summary of the method: as §1

velvetleaf = assay: Test B pre/postemergence velvetleaf; format: in vivo, Abutilon theophrasti
Summary of the method: as §1

wheat = assay: Test B pre/postemergence wheat; format: in vivo, Triticum aestivum
Summary of the method: as §1

wild oat = assay: Test B pre/postemergence wild oat; format: in vivo, Avena fatua
Summary of the method: as §1

purple nutsedge = assay: Test B pre/postemergence purple nutsedge; format: in vivo, Cyperus rotundus
Summary of the method: as §1

rice = assay: Test B flood test rice; format: in vivo, Oryza sativa
Summary of the method: (§2)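 Each value is a visual injury score relative to controls, with 10 meaning complete control and 0 no effect. Evaluation took place twelve to sixteen days after the 2-leaf-stage plants were treated and kept in the greenhouse.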

smallflower flatsedge = assay: Test B flood test smallflower flatsedge; format: in vivo, Cyperus difformis
Summary of the method: as §2

duck salad = assay: Test B flood test duck salad; format: in vivo, Heteranthera limosa
Summary of the method: as §2

bamyardgrass = assay: Test B flood test barnyardgrass; format: in vivo, Echinochloa crus-galli
Summary of the method: as §2

[1] = Postemergence, Rate 62 g/ha, scale 0 to 10, 0 is no effect, 10 is complete control
[2] = Postemergence, Rate 125 g/ha, scale of 0 to 10 where 0 is no effect and 10 is complete control
[3] = Postemergence, Rate 250 g/ha, scale of 0 to 10, 0 is no effect, 10 is complete control
[4] = Postemergence, Rate 500 g/ha, scale of 0 to 10 where 0 is no effect and 10 is complete control
[5] = Preemergence, Rate 62 g/ha, scale of 0 to 10 where 0 is no effect and 10 is complete control
[6] = Preemergence, Rate 125 g/ha, scale of 0 to 10 where 0 is no effect and 10 is complete control
[7] = Preemergence, Rate 250 g/ha, scale 0 to 10 (0 no effect, 10 complete control)
[8] = Preemergence, Rate 500 g/ha, scale of 0 to 10 where 0 is no effect and 10 is complete control
[9] = Rate 62 g/ha, flood test species, Pre-emergence, visual evaluation after twelve to sixteen days
[10] = Rate 125 g/ha, under heading Pre-emergence, flood test species, visual evaluation after twelve to sixteen days
[11] = Rate 250 g/ha, Pre-emergence (flood test species), scale 0 to 10, 0 is no effect, 10 is complete control
[12] = Rate 500 g/ha, Pre-emergence section of Table B, 0 to 10 scale (0 no effect, 10 complete control)

CC(C)N(C(=O)n1oc(=O)n(CCC(=O)N(C)C)c1=O)c1ccc(F)cc1 [Compound 638]
8: Plant response rating, B. signalgrass (surinam grass; [7]) | Plant response rating, B. signalgrass (surinam grass; [8]) | Corn plant response rating (corn; [6]) | Plant response rating, Corn (corn; [8]) | Crabgrass plant response rating (crabgrass; [3]) | Plant response rating, Nutsedge (purple nutsedge; [8])
3: Plant response rating, Corn (corn; [4]) | Soybean plant response rating (soybean; [3]) | Plant response rating, Soybean (soybean; [7]) | Plant response rating, Soybean (soybean; [8]) | Velvetleaf plant response rating (velvetleaf; [5]) | Wheat plant response rating (wheat; [3]) | Plant response rating, Wheat (wheat; [7])
5: Blackgrass plant response rating (blackgrass; [6]) | Plant response rating, Crabgrass (crabgrass; [2]) | Velvetleaf plant response rating (velvetleaf; [6]) | Plant response rating, Velvetleaf (velvetleaf; [7]) | Plant response rating, Nutsedge (purple nutsedge; [2]) | Nutsedge plant response rating (purple nutsedge; [6]) | Plant response rating, Nutsedge (purple nutsedge; [7])
2: Cocklebur plant response rating (cocklebur; [3]) | Plant response rating, Corn (corn; [2]) | Corn plant response rating (corn; [3]) | Plant response rating, Crabgrass (crabgrass; [1]) | Plant response rating, Velvetleaf (velvetleaf; [2])
7: Plant response rating, Blackgrass (blackgrass; [4]) | B. signalgrass plant response rating (surinam grass; [6]) | Plant response rating, Wheat (wheat; [8]) | Plant response rating, Nutsedge (purple nutsedge; [4])
1: Plant response rating, Soybean (soybean; [1]) | Plant response rating, Soybean (soybean; [2]) | Plant response rating, Wild oats (wild oat; [1]) | Plant response rating, Wild oats (wild oat; [2]) | Wild oats plant response rating (wild oat; [3])
0: Plant response rating, Blackgrass (blackgrass; [1]) | Plant response rating, B. signalgrass (surinam grass; [1]) | Plant response rating, Cocklebur (cocklebur; [1]) | Plant response rating, Cocklebur (cocklebur; [2]) | Cocklebur plant response rating (cocklebur; [5]) | Cocklebur plant response rating (cocklebur; [6]) | Plant response rating, Corn (corn; [1]) | Corn plant response rating (corn; [5]) | Soybean plant response rating (soybean; [5]) | Soybean plant response rating (soybean; [6]) | Plant response rating, Sugarbeets (sugar beet; [1]) | Plant response rating, Sugarbeets (sugar beet; [2]) | Sugarbeets plant response rating (sugar beet; [3]) | Sugarbeets plant response rating (sugar beet; [5]) | Plant response rating, Velvetleaf (velvetleaf; [1]) | Plant response rating, Wheat (wheat; [1]) | Plant response rating, Wheat (wheat; [2]) | Wheat plant response rating (wheat; [5]) | Wheat plant response rating (wheat; [6]) | Plant response rating, Nutsedge (purple nutsedge; [1]) | Nutsedge plant response rating (purple nutsedge; [5]) | Plant response rating, Rice (0 to 10 scale, 0 is no effect, 10 is complete control) (rice; [9]) | Rice plant response rating (0 to 10 scale, 0 is no effect, 10 is complete control) (rice; [10]) | Rice plant response rating (rice; [11]) | Rice plant response rating (rice; [12]) | Plant response rating, S. Flatsedge (0 to 10 scale, 0 is no effect, 10 is complete control) (smallflower flatsedge; [9]) | S. Flatsedge plant response rating (0 to 10 scale, 0 is no effect, 10 is complete control) (smallflower flatsedge; [10]) | S. Flatsedge plant response rating (smallflower flatsedge; [11]) | S. Flatsedge plant response rating (smallflower flatsedge; [12]) | Plant response rating, Ducksalad (0 to 10 scale, 0 is no effect, 10 is complete control) (duck salad; [9]) | Ducksalad plant response rating (0 to 10 scale, 0 is no effect, 10 is complete control) (duck salad; [10]) | Ducksalad plant response rating (duck salad; [11]) | Ducksalad plant response rating (duck salad; [12]) | Plant response rating, Barnyardgrass (0 to 10 scale, 0 is no effect, 10 is complete control) (bamyardgrass; [9]) | Barnyardgrass plant response rating (0 to 10 scale, 0 is no effect, 10 is complete control) (bamyardgrass; [10]) | Barnyardgrass plant response rating (bamyardgrass; [11]) | Barnyardgrass plant response rating (bamyardgrass; [12])
10: Plant response rating, Crabgrass (crabgrass; [8]) | Plant response rating, Sugarbeets (sugar beet; [8]) | Plant response rating, Velvetleaf (velvetleaf; [8]) | Plant response rating, Wild oats (wild oat; [7]) | Plant response rating, Wild oats (wild oat; [8])
4: Plant response rating, Blackgrass (blackgrass; [2]) | Blackgrass plant response rating (blackgrass; [5]) | Plant response rating, B. signalgrass (surinam grass; [2]) | B. signalgrass plant response rating (surinam grass; [5]) | Plant response rating, Cocklebur (cocklebur; [4]) | Plant response rating, Cocklebur (cocklebur; [7]) | Velvetleaf plant response rating (velvetleaf; [3]) | Wild oats plant response rating (wild oat; [5]) | Wild oats plant response rating (wild oat; [6])
6: Blackgrass plant response rating (blackgrass; [3]) | B. signalgrass plant response rating (surinam grass; [3]) | Plant response rating, B. signalgrass (surinam grass; [4]) | Sugarbeets plant response rating (sugar beet; [6]) | Plant response rating, Sugarbeets (sugar beet; [7])
9: Plant response rating, Blackgrass (blackgrass; [7]) | Plant response rating, Blackgrass (blackgrass; [8]) | Plant response rating, Cocklebur (cocklebur; [8]) | Plant response rating, Crabgrass (crabgrass; [4]) | Crabgrass plant response rating (crabgrass; [5]) | Crabgrass plant response rating (crabgrass; [6]) | Plant response rating, Crabgrass (crabgrass; [7])
